Values of other authors in US20060159724A1, “Nutritional supplement for the management of weight” (priority 2000, published 2006).
Like-named read-outs stand apart in the source and are kept apart here.

What was measured:
[1] = area under glycemic response curve, 2-hour period after 50 g carbohydrate, divided by standard (white bread or glucose)
[2] = system: obese subjects
[3] = first 6-week period, no dietary restrictions

SMILES	glycemic index (GI) [1]	decrease in carbohydrate intake [2, 3]	subjects with early satiety [2, 3] [%]	weight loss ([2]; obese subjects, 900 mg 5-HTP three times a day 30 minutes before meals, two 6-week periods, p<0.02 vs control arm) [%]	subjects with early satiety ([2]; second 6-week period, energy-restricted diet of 1,200 kcal) [%]
O=C(CO)[C@@H](O)[C@H](O)[C@H](O)CO [Fructose, fructose]	32	–	–	–	–
N[C@@H](Cc1c[nH]c2ccc(O)cc12)C(=O)O [5-HTP, 5-hydroxytryptophan]	–	about 50%	100	5	90
